Experimental data reported in patent US10189820.

Conditions: amide bond; 22-membered ring; HATU/DIEA; NMP; 68.9 mM; 140.0 °C; 2 steps

8-ethyl-10,18,30-trimethyl-7,20-dioxo-7,8,11,12,13,14,15,20,21,28,29,30,31,32-tetradecahydro-benzo[4,5]imidazo[2,1-b]benzo[4,5]imidazo[1,2-i]dipyrazolo[5,1-m:4′,3′-t][1,3,6,9,11,14]hexaazacyclodocosine-3,24-dicarboxamide
ring closure, yield after HPLC: 4.56%
